Data on seven molecules can be found in publication PMC6272390, “Xanthones from the Leaves of Garcinia cowa Induce Cell Cycle Arrest, Apoptosis, and Autophagy in Cancer Cells” (Molecules, 2015).

Broadly, the IC50 is the concentration at which inhibition is half-maximal.

For one series, the system named is HeLa. As to the kind of experiment: CCK-8 cytotoxicity assay, HeLa. Particulars: Homo sapiens, CCK-8, 72 h treatment. Format: cell-based. The protocol: (§1) The CCK-8 assay was used to determine cell viability. Test samples were dissolved in dimethyl sulfoxide (DMSO) to make stock solutions and further diluted in culture medium for assays. Human cancer cell lines (HeLa, PANC-1, and A549) were cultured in RPMI 1640, DMEM or DMEM/F12 (1:1) medium containing 10% fetal bovine serum. Cells were maintained at 37 °C in a humidified environment under 5% CO2. Cell proliferation assays were performed as previously described. Briefly, each cell line was seeded in a 96-well tissue culture plate at a predetermined density in 180 µL of complete medium, attached overnight and treated with test compound for 72 h. Then the medium was discarded and replaced with 10% CCK-8 in complete medium and the plates incubated for another 2 h. OD450 was measured with a SpectraMAX 190 spectrophotometer (MDS, Sunnyvale, CA, USA). Background absorbance was subtracted for all wells. Inhibition rate (IR) was determined. IR (%) = (ODDMSO − ODcompound)/ODDMSO × 100%.
In general terms: Tetrazolium dyes change colour on reduction, which living cells bring about.

A further series deals with A549. The series can be described thus: CCK-8 cytotoxicity assay, A549. The format is cell-based. Particulars: Homo sapiens, CCK-8, 72 h treatment. The protocol:
as §1

The next series relates to PANC-1. As to the kind of experiment: CCK-8 cytotoxicity assay, PANC-1. The format is cell-based. Particulars: Homo sapiens, CCK-8, 72 h treatment. The protocol: as §1
The nature of series [1]: CCK-8 cytotoxicity assay, immortalized HL7702 normal liver cells. The format is cell-based. The note with it: immortalized HL-7702 normal liver cells; CCK-8, 72 h treatment; normal human liver cells, selectivity.
For the next series, the system named is HeLa, PANC-1, and A549. As to the kind of experiment: Cytotoxicity against cell line panel (summary statements). The format is cell-based. Particulars: Homo sapiens; summary of Table 2; cell line not specified; read-out: Inhibition on cell viability, IC50. The protocol:
as §1

Another series deals with HeLa cells. As to the kind of experiment: Flow cytometry analysis of apoptosis and cell cycle arrest (PI staining). The format is cell-based, human. Particulars: 24 h, FACS. The protocol:
Figure 3 Effects of 1, 5, 16, and 17 on cell cycle and apoptosis. HeLa cells were treated with indicated chemicals. After 24 h of treatment, the cells were harvested, fixed in 70% EtOH, and stained with PI. The cell cycle and apoptosis rate were detected by FACS. Etoposide is used as positive control; (A) Cell cycle attribution of HeLa cells under different concentration treatment; (B) Apoptotic rates were acquired from Sub-G1 fraction from A.
Hypodiploid DNA and cell cycle arrest were evaluated as described previously. Briefly, after treatment of HeLa cancer cells with vehicle (0.1% DMSO) or test compound at the indicated concentrations and times, the cells were harvested by trypsinization and fixed with 70% (v/v) alcohol at 4 °C for 30 min. After washing with PBS, RNase (10 µg/mL) was added and incubated for 15 min at 37 °C to eliminate RNA interference. The cells were then treated with propidium iodide (PI) for another 30 min. The cells were washed, and the DNA content determined using FACSCalibur.
Background: Flow cytometry measures light scatter and fluorescence of single cells or particles in a stream.

In series [2] the test system is HeLa cells (PARP, caspase-3, LC3B, p62). As to the kind of experiment: Western blot of apoptosis and autophagy related proteins. Particulars: 24 h. Format: cell-based, human. The protocol: Figure 4 Effects of 1, 5, 16, and 17 on apoptosis and autophagy related proteins. Western blots of p62, LC3B, PARP, Caspase 3, and GAPDH of HeLa cells after 24 h treatment with 1, 5, 16, and 17. Etoposide was used as positive control.
Cell lysate was prepared in RIPA buffer and quantified by the bicinchoninic acid (BCA) method (Pierce, Rockford, IL, USA). Thirty micrograms of protein per sample was loaded onto a 4%~12% NuPAGE® Novex SDS gel. Protein was transferred using an iBlot® dry blotting device onto nitrocellulose membranes. After blocking nonspecific binding with TBS/Tween20 (0.1%) (TBS/T) containing 5% non-fat milk for 1 h at room temperature, the membrane was incubated in LC3B (Sigma, L7543), SQSTM1/p62 (MBL, PM045), PARP (CST #9542P, Cell Signaling Technology, Shanghai, China), or caspase-3 (CST #9662P, Cell Signaling Technology) (1:1000 in TBS/T containing 3% bovine serum albumin (BSA) in all cases) with gentle shaking at 4 °C overnight. Membranes were washed three times with TBS/T to remove unbound antibody and then incubated with secondary antibody (HRP-conjugated goat anti-mouse IgG or goat anti-rabbit IgG (1:5000) for 1 h at room temperature. Protein bands were visualized with an enhanced chemiluminescence kit (ECL, Pierce).
In general terms: In western blotting, separated proteins are transferred to a membrane and probed.

Series [3] deals with HeLa cells stably expressing GFP-LC3. As to the kind of experiment: GFP-LC3 puncta imaging. Format: cell-based, human. Particulars: HeLa-GFP-LC3 cells, 10, 20 µM, 24 h, confocal images. The procedure: Figure 5 Xanthone V1 (17) induces GFP-LC3 puncta formation in HeLa cells. HeLa cells stably expressing GFP-LC3 were seeded in a 96-well dish and treated with 10, 20 µM 17 for 24 h. (A) The number of GFP-LC3 puncta in each samples were calculated by Columbus software. The number was averaged of cells from three wells; (B) The images of GFP-LC3 puncta after 10, 20 µM treatment Xanthone V1 were acquired by an Opera (GFP ex and em) with a 40×-H2O objective. Left Panel: the original GFP-LC3 puncta; Right panel: the spots were auto-analyzed by Columbus software.
HeLa cells stably expressing GFP-LC3 were generated as previously described. Briefly, HeLa cells were transfected with pEGFP-LC3 plasmid using Lipofectamine 2000 (11668-019, Invitrogen, Carlsbad, CA, USA). One day after transfection, the cells were treated with 800 μg/mL G418 for 7 days. Surviving cells (termed HeLa-GFP-LC3 below) were continually cultured with 800 μg/mL G418. HeLa-GFP-LC3 cells were seeded in a 96-well plate overnight (clear bottom, black, Perkin-Elmer, Waltham, MA, USA). The cells were then treated with test compounds in triplicate. After 48 h, the cells were fixed with 4% paraformaldehyde and washed three times with PBS. […] The data were analyzed using Columbus 2.3 software (Perkin-Elmer). To quantify GFP-LC3 spots, the following procedures were performed: 1. […]

Turning to `CC(C)=CCc1c(O)c(O)c2oc3c(CC=C(C)C)c(O)ccc3c(=O)c2c1O` [Compound 1, 1,3,4,6-tetrahydroxy-2,5-di(3-methylbut-2-enyl)-xanthone], the 50% inhibitory concentration (IC50) was 8.09 ± 0.78 µM in the series on HeLa; 12.6 ± 4.3 µM in the series with A549; 14.8 ± 8.68 µM in the series on PANC-1; < 10 µM in the series on HeLa, PANC-1, and A549. The molecule further registered an IC50 at 72 h in series [1] of 11 ± 4.36 µM. Also, in the series with HeLa cells, the “Cell cycle arrest phase” value is listed as “at the G2/M phase”.
For `CC(C)=CCc1c2c(c3oc4c(O)c(O)ccc4c(=O)c3c1O)C=CC(C)(C)O2` [Compound 5, 1,5,6-trihydroxy-2-prenyl-6′,6′-dimethyl-2H-pyrano(2′,3′:3,4)xanthone], the IC50 in the series with HeLa was 7.06 ± 0.71 µM; with A549, 8.19 ± 0.99 µM; with PANC-1 it was 9.32 ± 4.58 µM; in the series with HeLa, PANC-1, and A549, < 10 µM. In series [1], this molecule gave an IC50 at 72 h of 10.5 ± 4.12 µM. Moreover, in the series on HeLa cells, the “Cell cycle arrest phase” value is on record as “cell cycle arrest at the S phase in a dose-dependent fashion”. In series [2], the PARP cleavage result is “activated PARP cleavage”.
With `C=C(C)C(O)C[C@H](C[C@@]12C[C@@H](CC=C(C)C)C(C)(C)[C@@](CC=C(C)C)(C(=O)C(C(=O)c3ccc(O)c(O)c3)=C1O)C2=O)C(=C)C` (stereo partly shown) [Compound 8, garcimultiflorone E], the concentration for half-maximal inhibition (IC50) in the series with HeLa was 17.6 ± 1.45 µM; in the series on A549, 7.57 ± 0.57 µM; with PANC-1, 17.7 ± 1.56 µM; in the series with HeLa, PANC-1, and A549 it was < 10 µM. Besides, inhibition in series [1] was half-maximal at 7.34 ± 0.65 µM (IC50 at 72 h).
In the same order, the values of `C=C(C)C(CC=C(C)C)C[C@@]12C[C@@H](CC=C(C)C)C(C)(C)[C@@](CC=C(C)C)(C1=O)c1oc3cc(O)c(O)cc3c(=O)c1C2=O` (stereo partly shown) [Compound 15, symphonone H] are 9.83 ± 0.61 µM, 6.27 ± 0.71 µM, 11.2 ± 4.89 µM, < 10 µM and 3.96 ± 2.38 µM.
Regarding `CC1(C)C=Cc2c(cc3oc4c(O)c(O)ccc4c(=O)c3c2O)O1` [Compound 16, jacareubin], the 50% inhibitory concentration (IC50) in the series on HeLa is 1.09 ± 0.67 µM; with A549, 6.9 ± 2.23 µM; in the series with PANC-1, 10.1 ± 7.91 µM; in the series on HeLa, PANC-1, and A549, < 10 µM. For the same molecule, half-maximal inhibition in series [1] (IC50 at 72 h) was put at 5.5 ± 1.79 µM. Besides, the “Cell cycle arrest phase” value in the series with HeLa cells is “at the G2/M phase”. The “Induction of apoptosis (Sub-G1 fraction)” value in the series with HeLa cells was “induced apoptosis”. The PARP cleavage result in series [2] is reported as “activated PARP cleavage”.
Regarding `CC(C)=CCc1c2c(c(O)c3c(=O)c4ccc(O)c(O)c4oc13)C=CC(C)(C)O2` [Compound 17, xanthone V1], inhibition in the series on HeLa was half-maximal at 4.71 ± 0.52 µM (IC50). For the same molecule, the half-maximal inhibitory concentration (IC50) in the series on A549 turned out to be 11.8 ± 6.29 µM. In the series on PANC-1, this molecule had an IC50 of 6.56 ± 2.55 µM. Also, the half-maximal inhibitory concentration (IC50) at 72 h in series [1] stood at 9.5 ± 3.74 µM. For the same molecule, the concentration for half-maximal inhibition (IC50) in the series on HeLa, PANC-1, and A549 was < 10 µM. In the series on HeLa cells, the “Cell cycle arrest phase” value is “at the G1 phase” and the “Induction of apoptosis (Sub-G1 fraction)” value was “induced apoptosis”. In addition, in series [2], the “Conversion of LC3-I to LC3-II” value is “increased the conversion of LC3-I to LC3-II”, the PARP cleavage entry is “activated PARP cleavage” and the p62 level result is “p62 reduction”. In series [3], the GFP-LC3 puncta formation result is recorded as “an increase in GFP-LC3 puncta was observed”.
Turning to `COc1cc([C@@H]2c3cc4c(cc3[C@@H](O[C@@H]3O[C@@H]5CO[C@@H](C)O[C@H]5[C@H](O)[C@H]3O)[C@H]3COC(=O)[C@H]23)OCO4)cc(OC)c1O` [Etoposide, reference compound], the IC50 with HeLa came out at 2.91 ± 0.16 µM; with A549 it was 1.31 ± 0.09 µM; in the series with PANC-1 it was 22.8 ± 1.93 µM. In series [1], this molecule yielded a concentration for half-maximal inhibition (IC50) at 72 h of 1.42 ± 0.13 µM.
